# Reference: patent US20090054389A1, “Topical Composition Comprising an Antibacterial Substance” (Leo Pharma A/S, priority 2006, published 2009)
# Experiments:
# [1] = In vitro skin penetration study (Franz diffusion cells, radiolabelled compositions); conditions: barrier-impaired skin; versus fusidic acid in a monoglyceride composition, or versus composition without stabilising agent
# [2] = tested on: intracellular and extracellular M. leprae; conditions: cited from earlier work
smiles,measurement,setting,value
"CC(=O)O[C@H]1C[C@@]2(C)[C@@H](C[C@@H](O)[C@H]3[C@@]4(C)CC[C@@H](O)[C@@H](C)[C@@H]4CC[C@@]32C)/C1=C(\CCC(Br)=C(C)C)C(=O)O [11-^3H 24-bromo-fusidic acid, 24-Bromo-fusidic acid]","degree of retention in dermis and epidermis, comparison",[1],significantly higher
"CC(=O)O[C@H]1C[C@@]2(C)[C@@H](C[C@@H](O)[C@H]3[C@@]4(C)CC[C@@H](O)[C@@H](C)[C@@H]4CC[C@@]32C)/C1=C(\CCC=C(C)C)C(=O)O [fusidic acid, Fusidic acid]",potency against M. leprae,[2],highly potent
